Here are results for 91 molecules from ChEMBL document CHEMBL4418497, “Compositions and methods relating to inhibiting serine hyrdoxymethyltransferase 2 activity” (2016).

Assay [1] addresses T1, Serine hydroxymethyltransferase, mitochondrial (Homo sapiens) (UniProt P34897).
T1 sequence (whole entry): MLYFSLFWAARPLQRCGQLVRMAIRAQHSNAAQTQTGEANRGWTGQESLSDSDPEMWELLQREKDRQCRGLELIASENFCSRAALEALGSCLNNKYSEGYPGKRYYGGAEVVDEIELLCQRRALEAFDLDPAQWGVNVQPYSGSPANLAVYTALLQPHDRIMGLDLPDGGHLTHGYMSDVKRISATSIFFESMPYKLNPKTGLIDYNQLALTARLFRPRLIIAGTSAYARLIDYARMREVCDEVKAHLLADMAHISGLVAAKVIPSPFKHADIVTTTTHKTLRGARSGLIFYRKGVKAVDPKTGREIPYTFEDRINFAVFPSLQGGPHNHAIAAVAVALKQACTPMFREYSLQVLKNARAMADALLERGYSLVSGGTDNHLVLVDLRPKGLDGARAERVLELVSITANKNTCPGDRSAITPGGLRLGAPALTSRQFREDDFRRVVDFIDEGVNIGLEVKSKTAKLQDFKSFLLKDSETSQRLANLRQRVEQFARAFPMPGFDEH
Nature of the assay: Inhibition of His-tagged human recombinant SHMT2 expressed in Escherichia coli BLR(DE3) assessed as reduction in NADPH level using L-serine, THF and NADP+ at 6.5 or 26.5 uM incubated for 5 mins by SHMT2-MTHFD coupled reaction based fluorescence assay relative to control.

Assay [2] deals with T2, Serine hydroxymethyltransferase, mitochondrial (Homo sapiens, UniProt P34897).
T2 sequence (P34897 whole entry): T1 sequence (whole entry)
Nature of the assay: Inhibition of His-tagged human recombinant SHMT2 expressed in Escherichia coli BLR(DE3) assessed as reduction in NADPH level using L-serine, THF and NADP+ incubated for 5 mins by SHMT2-MTHFD coupled reaction based fluorescence assay. The conditions noted are these: read-out: IC50.

In the case of `COc1ccc(OC)c(NC(=S)N2CCN(c3ncc(C(F)(F)F)cc3Cl)CC2)c1`, the inhibition in assay [1] was 60.2%. Still for that read-out and setting: the figure for `Fc1ccc(COc2ccc(-c3nnco3)cc2)cc1` is 53.7%; for `c1ccc2c(N3CCNCC3)cccc2c1` it is 86.1%; for `COC(=O)[C@@H]1[C@H]2C[C@H]3c4[nH]c5ccccc5c4CCN3C[C@@H]2CC[C@@H]1O` it is 57.4%.

As for `COc1ccc(OC)c(Nc2c(-c3ccc4c(c3)CCCC4)c(=O)c2=O)c1`, the IC50 in assay [2] came to 2.4 µM. On the same count and under the same terms, under `O=C(CSc1nc2ncccc2o1)Nc1ccc(Br)cc1F` stands 1.82 µM; under `CC(C)Cn1cc(NC(=O)Nc2cc(F)ccc2F)c2ccccc2c1=O`, 4.27 µM. Still for that read-out and setting: under `COc1ccc(NC2c3ncccc3C(=O)N2Cc2ccco2)cc1OC` (stereo unspecified) stands 12.6 µM; under `CCOC(=O)Cc1csc(NC(=O)Nc2cn(CC(C)C)c(=O)c3ccccc23)n1`, 3.31 µM; under `CC(C)CCNC(=O)CSc1nc2ncccc2o1`, 2.51 µM. On to `COc1ccc(OC)c(NC2c3ncccc3C(=O)N2c2ccccc2)c1` (stereo unspecified), for which, in assay [2], the IC50 worked out at 15.5 µM. Regarding `Cc1cc(C)n(-c2nnc(Nc3ccc4c(c3)OCCO4)c3ccccc23)n1`, the IC50 in assay [2] came out at 2.19 µM. Turning to `Cn1cc(NC(=O)NCCN2CCOCC2)c2ccccc2c1=O`, the 50% inhibitory concentration (IC50) in assay [2] was 6.76 µM.

On to `CCc1ccc(NS(=O)(=O)c2ccc3c4c2CC(=O)N4CC(C)S3)cc1` (stereo unspecified), for which the half-maximal inhibitory concentration (IC50) in assay [2] is 2.14 µM. Same read-out and setting: the figure for `COc1ccc(NCc2cccn2-c2nnc(N3CCCCC3)s2)cc1OC` is 3.39 µM; for `Cn1cc(NC(=O)NCc2cccnc2)c2ccccc2c1=O` it is 5.75 µM; for `Cc1cc(NC(=O)N2CCSc3ncccc32)ccc1Br` it is 4.37 µM.

`Cc1c(C(=O)NCc2cccs2)oc2c1-c1[nH]ncc1CC2`: the IC50 in assay [2] was found to be 7.94 µM. With `CCCNC(=O)Nc1cn(CC(C)C)c(=O)c2ccccc12`, the IC50 in assay [2] was 2.14 µM. Turning to `COc1cc(NC2=C(c3ccccc3)C(=O)c3ccccc32)cc(OC)c1`, the IC50 in assay [2] is 11.5 µM.

For the molecule `CCCN1CCN(CCCNC(=O)c2oc3c(c2C)-c2[nH]ncc2CC3)CC1`, in assay [2], the IC50 was 5.13 µM.

`COc1ccc(Nc2ncnc3sc(C(=O)O)cc23)c(OC)c1`: the IC50 in assay [2] was 1.35 µM. In the case of `Cn1nc(C(=O)N2CC=C(c3ccccc3)CC2)c2c1-c1ccsc1CC2`, the IC50 in assay [2] turned out to be 0.85 µM. The same measure, in the same setting: the figure for `Cc1c(C(=O)NCc2ccco2)oc2c1-c1[nH]ncc1CC2` is 6.92 µM; for `O=C1c2ccccc2C(Nc2ccc3[nH]c(-c4cccnc4)nc3c2)N1Cc1ccco1` (stereo unspecified) it is 9.77 µM.

Turning to `CCC(Sc1nc2ncccc2o1)C(=O)Nc1c(C)cc(C)cc1C` (stereo unspecified), the half-inhibitory concentration (IC50) in assay [2] turned out to be 2.51 µM. The same measure, in the same setting: the figure for `CN1CCN(CCCNC(=O)c2ccc(N3CCSc4ncccc43)s2)CC1` is 3.8 µM. The same measure, in the same setting: under `CCOc1cc(-c2nnc3[nH]c(=O)n(C)c(=O)c3n2)ccc1OC(C)C` stands 0.69 µM.

In the case of `CN1CCc2nc3sc(C(=O)c4ccc(Cl)cc4)c(N)c3cc2C1`, in assay [2], the IC50 stood at 3.89 µM. With `O=C(CSc1nc2ncccc2o1)Nc1ccc(S(=O)(=O)Nc2ccc(F)cc2)cc1`, the half-inhibitory concentration (IC50) in assay [2] was 2.75 µM. With `COc1ccc(N2C(=O)c3cccnc3C2Nc2ccc(OC)c(OC)c2)cc1` (stereo unspecified), the IC50 in assay [2] was found to be 2.95 µM.

In the case of `COc1ccc(NC(=O)N2CCn3c(C)ccc3C2C(C)C)cc1OC` (stereo unspecified), the IC50 in assay [2] came to 2.69 µM. On the same count and under the same terms, under `CC(C)Cn1cc(NC(=O)Nc2ccc(N3CCC(C)CC3)cc2)c2ccccc2c1=O` stands 8.91 µM. As for `COCCN1CCn2c(nc3cc(NC(=O)NC4CCCCC4)ccc32)C1`, the IC50 in assay [2] amounted to 5.13 µM. On the same count and under the same terms, under `CNC(=O)c1oc2c(c1C)C1N=C(C)SC1CC2` (stereo unspecified) stands 5.13 µM. Still for that read-out and setting: the figure for `Cn1cnc2cc(NCc3ccco3)ccc21` is 2.04 µM. Still for that read-out and setting: the figure for `CC(C)Cn1cc(NC(=O)NC(c2cccs2)C(C)C)c2ccccc2c1=O` (stereo unspecified) is 4.07 µM. Turning to `COCCCNc1nc(Nc2ccc(OC)cc2)c2cnn(C)c2n1`, the IC50 in assay [2] turned out to be 2.34 µM. On the same count and under the same terms, the figure for `COc1ccc(OC)c(NS(=O)(=O)c2ccc3c(c2)S(=O)(=O)NC=N3)c1` is 4.07 µM; for `Cc1ccc2c(c1)c1c(n2CC(O)CNCCO)C(=O)CCC1` (stereo unspecified) it is 5.01 µM. As for `COc1ccc2c(c1)C=C(C(=O)Nc1ccc(OC)cc1OC)CO2`, the IC50 in assay [2] stood at 8.71 µM. Consider `COc1c(C)cnc(CSc2nc3ncccc3o2)c1C`, for which, in assay [2], the IC50 came out at 4.07 µM. On the same count and under the same terms, under `CCc1nnc2c3ccccc3nc(Nc3ccc(OC)c(OC)c3)n12` stands 12.3 µM. Still for that read-out and setting: the figure for `COc1ccc(OC)c(NC(=O)N2CCN(S(=O)(=O)c3ccc4c(ccn4C)c3)CC2)c1` is 3.24 µM; for `CC(C)Cn1cc(NC(=O)N2CCN(C(=O)c3ccco3)CC2)c2ccccc2c1=O` it is 4.57 µM. On the same count and under the same terms, the figure for `COc1ccc(-c2nc3c4nsnc4ccc3n2C)cc1Br` is 0.54 µM; for `Cc1cc(=O)c2c(=O)n(-c3nc4ccccc4s3)[nH]c2[nH]1` it is 1.62 µM. Regarding `Fc1ccc(NCc2ccc3nccnc3c2)c(F)c1`, the IC50 in assay [2] was found to be 2.75 µM. `CN(C)c1ccc(NC(=O)C2CC=CCC2C(=O)O)cc1` (stereo unspecified): the IC50 in assay [2] amounted to 4.79 µM. Same read-out and setting: the figure for `CCC1c2ccc(C)n2CCN1C(=O)Nc1cc(OC)cc(OC)c1` (stereo unspecified) is 7.94 µM; for `CCC1=NN(c2ccccc2)C(=O)C1` it is 8.51 µM.

As for `CCOC(=O)c1c(S(=O)(=O)Nc2ccc(OC)c(OC)c2)c(C)n(C)c1C`, the IC50 in assay [2] stood at 8.13 µM. Take `CC(C)CC(=O)Nc1cc(F)c2nc(N3CCOCC3)ccc2c1`: in assay [2], the IC50 is 2.57 µM. With `CCOC(=O)C1CCCN(c2cc(C(=O)O)c3cc(N)ccc3n2)C1` (stereo unspecified), the IC50 in assay [2] worked out at 5.5 µM. On the same count and under the same terms, the figure for `O=C(Nc1cc(F)c2nc(N3CCOCC3)ccc2c1)c1ccco1` is 3.55 µM; for `COc1ccc2nc(NC(=O)Nc3cn(CC(C)C)c(=O)c4ccccc34)sc2c1` it is 2.04 µM; for `Cc1nc(SCC(=O)Nc2cccc3nsnc23)oc1C` it is 2.51 µM.

With `CCOC(=O)CSc1nc2ccc(N)cc2s1`, the IC50 in assay [2] was 0.71 µM. Regarding `O=C(CSc1nc2ncccc2o1)Nc1ccc(S(=O)(=O)NC2CCCCC2)cc1`, in assay [2], the IC50 turned out to be 3.02 µM. `COc1ccc(OC)c(NC(=O)CSc2nc3ncccc3o2)c1`: the IC50 in assay [2] was 2.14 µM.

As to `Cn1cc(NC(=O)NCC2COc3ccccc3O2)c2ccccc2c1=O` (stereo unspecified), the IC50 in assay [2] was determined as 4.68 µM. On the same count and under the same terms, the figure for `COc1cc(OC)c(NC(=O)N2CCn3cccc3C2C)cc1Cl` (stereo unspecified) is 12.9 µM; for `C=CCOc1ccc(C2CC(=O)Nc3c(-c4ccccc4OC)csc32)cc1` (stereo unspecified) it is 1.02 µM. On the same count and under the same terms, under `COc1ccc(Nc2nc(Nc3ccccc3)c3cnn(C)c3n2)c(OC)c1` stands 3.31 µM. Still for that read-out and setting: under `CC(=O)Nc1ccc2nc(SCc3cc(=O)n4nc(C)sc4n3)sc2c1` stands 3.09 µM.

On to `COc1cc(C2CC(=O)N3CN(C4CCCCC4)CSC3=C2C#N)ccc1O` (stereo unspecified), for which, in assay [2], the IC50 was 4.37 µM.

Turning to `COc1ccc(NC(=O)N2CCN3CCCCC3C2)cc1OC` (stereo unspecified), in assay [2], the IC50 was determined as 3.39 µM. The same measure, in the same setting: the figure for `COc1ccc(Nc2nc(Nc3ccc(OC)c(Cl)c3)c3cnn(C)c3n2)c(OC)c1` is 2.45 µM; for `CCC(CC)C(=O)Nc1cc(F)c2nc(N3CCOCC3)ccc2c1` it is 5.13 µM; for `C=CCn1c(=O)sc2cc(NC(=O)Cc3ccc(F)cc3)ccc21` it is 10.2 µM. In the case of `CC(C)Cn1cc(NC(=O)NC2CCCCC2)c2ccccc2c1=O`, the IC50 in assay [2] was 1.74 µM.

In the case of `CCN(CC)CCNC(=O)c1noc2c1CCc1sccc1-2`, the IC50 in assay [2] was 4.17 µM. For the molecule `CC(C)Cn1cc(NC(=O)Nc2ccc(Cl)cn2)c2ccccc2c1=O`, the IC50 in assay [2] came out at 3.8 µM. For the molecule `CCC(C)NC(=O)Nc1cn(CC(C)C)c(=O)c2ccccc12` (stereo unspecified), in assay [2], the IC50 stood at 2.34 µM. On the same count and under the same terms, under `COc1cc(NC(=O)C2=Cc3sc(C)c(C)c3CS2)cc(OC)c1` stands 6.76 µM; under `COC(=O)c1sc(=S)n(-c2ccc3c(c2)OCO3)c1N`, 2.95 µM. Turning to `CC(C)Cn1cc(NC(=O)Nc2cccnc2)c2ccccc2c1=O`, the IC50 in assay [2] came to 2.24 µM. Same read-out and setting: under `CCOC(=O)c1c(C)oc2c1c1c(c3ccccc32)OCN(CCCC(=O)O)C1` stands 1.35 µM; under `Cc1ccc2oc(SCC(=O)Nc3cccc(N4CCCC4=O)c3)nc2n1`, 4.47 µM; under `O=C1CSC(c2ccccn2)N1c1ccc2ccccc2c1` (stereo unspecified), 11 µM. The same measure, in the same setting: under `CC1=NC2c3c(oc(C(=O)NCC4CCCO4)c3C)CCC2S1` (stereo unspecified) stands 4.07 µM; under `CC(C)Cn1cc(NC(=O)N2CCN(c3cccc(Cl)c3)CC2)c2ccccc2c1=O`, 5.89 µM. On the same count and under the same terms, under `COc1ccc(Nc2nc(NC3CCCC3)nc3c2cnn3C)cc1` stands 2.69 µM. As to `CCOc1ccc(Nc2ncnc3sc(C(=O)O)c(C)c23)cc1`, the IC50 in assay [2] was 9.33 µM. The same measure, in the same setting: under `CC(C)Cn1cc(NC(=O)NC2CC2)c2ccccc2c1=O` stands 8.71 µM. With `Cc1c(C(=O)N2CCOCC2)oc2c1-c1nn(CC(=O)NC3CCCC(C)C3C)cc1CC2` (stereo unspecified), the IC50 in assay [2] was determined as 2.69 µM. For the molecule `Nc1ncccc1NC(=O)CCC(=O)O`, in assay [2], the IC50 was determined as 4.47 µM. On the same count and under the same terms, under `O=C1CCCC2=C1C(c1cccs1)N(S(=O)(=O)c1ccc(F)cc1)c1ccccc1N2` (stereo unspecified) stands 4.57 µM. Still for that read-out and setting: under `O=C(Nc1cc(F)c2nc(N3CCCC3)ccc2c1)C1CCCCC1` stands 2.57 µM; under `CC(C)Cn1cc(NC(=O)NCCCN2CCCC(C)C2)c2ccccc2c1=O` (stereo unspecified), 2.45 µM; under `CC(C)Cn1cc(NC(=O)N(Cc2ccco2)CC2CCCO2)c2ccccc2c1=O` (stereo unspecified), 3.89 µM.

Usually inhibition stands for the share of the control response that was lost under treatment. Broadly, the IC50 is the concentration that inhibits the measured activity by half.
